Values quoted from earlier work, collected in patent US12606521B2, “Methods of treating cancer” (Institute For Cancer Research, priority 2020, dated 2026).

Tested on: cancer cells
Details: combination with decitabine

Structure (SMILES): Cc1cc(C(C#N)c2ccc(Cl)cc2)c(Cl)cc1NC(=O)c1cc(I)cc(I)c1O (stereo not shown) [closantel]
- Interaction with decitabine in killing cancer cells: synergizes with decitabine
